Two molecules from patent US4182889A, “Process for preparing 10-methyl-2,9-dioxatricyclo[4,3,1,0^3,7 ] decanes” (Kali-Chemie Pharma GmbH, priority 1977, dated 1980) can be followed below.

Broadly, the LD50 is the dose at which mortality reaches 50%. A high value points to a less toxic substance.

Data set [1] is described as follows: toxicity in mice (LD50). The settings on record: mouse, in vivo.
Data set [2] is described as follows: anticonvulsive activity in the screening in white mice. Type of data set: in vivo. The settings on record: oral dosages starting at 10 mg/kg. The source says: (§1) The hydrochloride of formula II, test substance number 1973, and the hydrogentartrate of formula II, test substance number 2961, have been used for pharmacological testing.
Data set [3] is described as follows: hexobarbital induced sleep prolongation in mice. Type of data set: in vivo. To be noted: white mice; oral dosages starting at 10 mg/kg; dose dependent. How it is done: For example, they effect a significant increase of the duration of hexobarbital induced sleep in mice upon oral administration of from 1 to 100 mg/kg body weight. Electroencephalographical tests in rats show an increase of the classical and the paradoxical sleep phases upon oral administration of from 1 to 100 mg/kg body weight.
as §1

Counter-ions that a name gives are not always drawn.

Take `COC1OC2OC3(CN4CCCCC4)C(O)CC(C2C)C13` (stereo not drawn) [test substance number 1973, 3-piperidinomethyl-4β-hydroxy-8-methoxy-10β-methyl-2,9-dioxatricyclo[4,3,1,0^3,7] decane hydrochloride]: the LD50 in data set [1] (ip) amounted to 406 mg/kg; in data set [1] (po), 1140 mg/kg. Moreover, in data set [2], the anticonvulsive activity result is listed as “do not exhibit any anticonvulsive activity”. In data set [3], the “increase of the duration of hexobarbital induced sleep” value is given as “remarkable increase”.

For `COC1OC2OC3(CN4CCCCC4)C(O)CC(C2C)C13` (stereo not drawn) [test substance number 2961, 3-piperidinomethyl-4β-hydroxy-8-methoxy-10β-methyl-2,9-dioxatricyclo-[4,3,1,0^3,7] decane hydrogentartrate], the anticonvulsive activity result in data set [2] is given as “do not exhibit any anticonvulsive activity”. Further, the “increase of the duration of hexobarbital induced sleep” value in data set [3] was “remarkable increase”.
